Measurements reported in patent US10988477B2 (Merck Patent GmbH, priority 2018, dated 2021).

Legend:
GCN2 kinase = GCN2 kinase (Homo sapiens, UniProt Q9P2K8); test: GCN2 enzyme inhibition assay (Transcreener ADP2 fluorescence polarization); format: biochemical; details: 280 μM ATP
Outline: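 ADP formation read by Transcreener FP after a 1 h, 25 °C kinase reaction containing 280 μM ATP, 200 μM (RS)7 substrate and 4 nM GCN2, pH 7.5 Tris buffer. Compounds (0–8 μM final) were added 10 min before ATP. Percent inhibition gave IC50 and apparent Ki via tight-binding fit.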

[1] = target: intracellular GCN2 (phosphorylation of the GCN2 substrate eIF2α) (Homo sapiens, UniProt Q9P2K8); test: GCN2 cellular inhibition assay (AlphaScreen SureFire P-eIF2α Ser51, borrelidin-treated U2OS cells); format: cell-based; details: biomarker assay, phosphorylated eIF2α Ser51 in borrelidin-treated U2OS cells
Chain of intracellular GCN2 (phosphorylation of the GCN2 substrate eIF2α) (Q9P2K8 whole entry): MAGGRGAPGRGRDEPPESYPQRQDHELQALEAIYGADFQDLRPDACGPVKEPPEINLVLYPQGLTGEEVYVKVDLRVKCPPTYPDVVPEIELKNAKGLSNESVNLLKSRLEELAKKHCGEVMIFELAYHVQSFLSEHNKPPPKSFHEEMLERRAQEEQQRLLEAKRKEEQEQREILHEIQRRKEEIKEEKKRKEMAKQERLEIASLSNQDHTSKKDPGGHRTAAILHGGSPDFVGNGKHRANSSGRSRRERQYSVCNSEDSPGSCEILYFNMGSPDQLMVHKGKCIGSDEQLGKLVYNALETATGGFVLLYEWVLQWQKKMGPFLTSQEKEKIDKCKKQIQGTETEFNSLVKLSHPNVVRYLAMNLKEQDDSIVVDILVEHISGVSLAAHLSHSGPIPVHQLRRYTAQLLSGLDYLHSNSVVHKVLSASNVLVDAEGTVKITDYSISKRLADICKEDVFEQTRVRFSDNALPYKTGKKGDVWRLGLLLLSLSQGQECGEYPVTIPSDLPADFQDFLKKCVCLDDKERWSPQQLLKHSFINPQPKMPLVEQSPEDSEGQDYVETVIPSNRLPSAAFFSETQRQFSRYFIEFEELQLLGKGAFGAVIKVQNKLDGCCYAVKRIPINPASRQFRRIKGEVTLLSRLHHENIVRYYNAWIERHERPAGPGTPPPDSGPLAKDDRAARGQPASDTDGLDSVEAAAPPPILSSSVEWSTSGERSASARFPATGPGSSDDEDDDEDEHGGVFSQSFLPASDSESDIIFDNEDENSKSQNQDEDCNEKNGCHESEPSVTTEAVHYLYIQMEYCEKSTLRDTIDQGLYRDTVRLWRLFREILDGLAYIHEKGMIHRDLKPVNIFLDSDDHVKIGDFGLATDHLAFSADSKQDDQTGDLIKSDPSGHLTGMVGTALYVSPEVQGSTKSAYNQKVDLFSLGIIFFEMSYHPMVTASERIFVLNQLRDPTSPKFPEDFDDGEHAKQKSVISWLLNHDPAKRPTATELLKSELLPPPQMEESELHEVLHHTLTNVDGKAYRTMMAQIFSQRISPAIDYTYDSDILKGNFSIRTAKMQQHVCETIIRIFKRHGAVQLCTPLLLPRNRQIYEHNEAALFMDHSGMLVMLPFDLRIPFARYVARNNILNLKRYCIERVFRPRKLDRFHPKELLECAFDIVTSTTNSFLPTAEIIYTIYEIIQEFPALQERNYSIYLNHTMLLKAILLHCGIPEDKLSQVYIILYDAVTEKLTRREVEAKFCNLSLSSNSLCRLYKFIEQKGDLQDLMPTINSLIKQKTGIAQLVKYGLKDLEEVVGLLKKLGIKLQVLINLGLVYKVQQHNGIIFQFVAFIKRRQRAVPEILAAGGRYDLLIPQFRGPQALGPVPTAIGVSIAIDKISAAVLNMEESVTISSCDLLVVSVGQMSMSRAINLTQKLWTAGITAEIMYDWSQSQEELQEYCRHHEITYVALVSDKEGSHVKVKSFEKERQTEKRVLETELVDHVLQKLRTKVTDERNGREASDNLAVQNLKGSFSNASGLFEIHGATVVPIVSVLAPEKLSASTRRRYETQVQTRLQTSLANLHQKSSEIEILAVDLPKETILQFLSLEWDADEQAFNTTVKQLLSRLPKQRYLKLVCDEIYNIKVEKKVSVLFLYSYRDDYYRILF
Outline: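 Phospho-eIF2α (Ser51) in lysates was quantified by AlphaScreen SureFire after a 1 h, 37 °C treatment of U2OS cells with 10 μM borrelidin and compound at 4-fold dilutions starting from 40 μM final. Inhibition expressed in percent against wells stimulated by borrelidin alone.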

[2] = compounds of Formula II, 4 nM GCN2 kinase
[3] = Enzyme activity for compounds of Formula IV, Ki(app), 25° C.

Chain of GCN2 kinase (Q9P2K8 whole entry): as above

SMILES | Ki (GCN2 kinase; [2]) [µM] | IC50 ([1]; compounds of Formula II) [µM] | Ki (GCN2 kinase; [3]) [µM] | IC50 ([1]; compounds of Formula IV) [µM]
C[C@H]1CN(c2cc(-c3cnc4ccc(C(F)F)nn34)ncn2)C[C@@H](CNS(C)(=O)=O)C1(F)F [II-36, N-[[(3S,5S)-1-[6-[6-(Difluoromethyl)imidazo[1,2-b]pyridazin-3-yl]pyrimidin-4-yl]-4,4-difluoro-5-methyl-3-piperidyl]methyl]methanesulfonamide] | < 0.01 | < 0.5 |  | 
CC1CN(c2ccnc(-c3cnc4cnc(Br)cn34)n2)C(C)C(c2c[nH]cn2)N1 (centres unmarked) [IV-373, 3-(4-(3-(1H-Imidazol-4-yl)-2,5-dimethylpiperazin-1-yl)pyrimidin-2-yl)-6-bromoimidazo[1,2-a]pyrazine] |  |  | < 0.01 | 0.5 to 5
CC1CN(c2cc(-c3cnc4ccc(C(F)F)nn34)ncn2)C(C)C(CNS(C)(=O)=O)N1 (centres unmarked) [II-427, N-((4-(6-(6-(Difluoromethyl)imidazo[1,2-b]pyridazin-3-yl)pyrimidin-4-yl)-3,6-dimethylpiperazin-2-yl)methyl)methanesulfonamide] | < 0.01 | < 0.5 |  | 
CC1C(CNS(C)(=O)=O)N(CC2CC2)CCN1c1cc(-c2cnc3ccc(C(F)F)nn23)ncn1 (centres unmarked) [II-495, N-((1-(Cyclopropylmethyl)-4-(6-(6-(difluoromethyl)imidazo[1,2-b]pyridazin-3-yl)pyrimidin-4-yl)-3-methylpiperazin-2-yl)methyl)methanesulfonamide] | < 0.01 | < 0.5 |  | 
NS(=O)(=O)C1CCCN(c2ccnc(-c3cnc4cnc(C(F)F)cn34)n2)C1 (centres unmarked) [IV-177, 1-(2-(6-(Difluoromethyl)imidazo[1,2-a]pyrazin-3-yl)pyrimidin-4-yl)piperidine-3-sulfonamide] |  |  | 0.1 to 1 | > 5
FC(F)c1cn2c(-c3nccc(N4CCCCCC4)n3)cnc2cn1 [IV-105, 3-(4-(Azepan-1-yl)pyrimidin-2-yl)-6-(difluoromethyl)imidazo[1,2-a]pyrazine] |  |  | 0.1 to 1 | > 5
CC1CC(CNS(C)(=O)=O)CN(c2cc(-c3cnc4ccc(C(F)F)nn34)ncn2)C1 (single isomer, unassigned) [II-436, N-((1-(6-(6-(Difluoromethyl)imidazo[1,2-b]pyridazin-3-yl)pyrimidin-4-yl)-5-methylpiperidin-3-yl)methyl)methanesulfonamide] | 0.01 to 1 | 0.5 to 5 |  | 
CC1CN(c2ccnc(-c3cnc4cnc(Br)cn34)n2)C(C)C(c2c[nH]cn2)N1 (single isomer, unassigned) [IV-376, 3-(4-(3-(1H-Imidazol-4-yl)-2,5-dimethylpiperazin-1-yl)pyrimidin-2-yl)-6-bromoimidazo[1,2-a]pyrazine] |  |  | < 0.01 | 0.5 to 5
CP(C)(=O)C1CC(c2cn[nH]c2)CN(c2ccnc(-c3cnc4cnc(C(F)(F)F)cn34)n2)C1 (centres unmarked) [IV-591, (5-(1H-Pyrazol-4-yl)-1-(2-(6-(trifluoromethyl)imidazo[1,2-a]pyrazin-3-yl)pyrimidin-4-yl)piperidin-3-yl)dimethylphosphine oxide] |  |  | 0.1 to 1 | > 5
CS(=O)(=O)N1CCCN(c2cc(-c3cnc4ccc(C(F)F)nn34)ncn2)CC1 [II-22, 6-(Difluoromethyl)-3-(6-(4-(methylsulfonyl)-1,4-diazepan-1-yl)pyrimidin-4-yl)imidazo[1,2-b]pyridazine] | 0.01 to 1 | > 5 |  | 
N#Cc1cn2c(-c3nccc(N4CCOC(c5cn[nH]c5)C4)n3)cnc2cn1 (centres unmarked) [IV-18, 3-(4-(2-(1H-Pyrazol-4-yl)morpholino)pyrimidin-2-yl)imidazo[1,2-a]pyrazine-6-carbonitrile] |  |  | < 0.01 | 0.5 to 5
OCc1cccc(-c2ccnc(-c3cnc4cnc(C(F)F)cn34)n2)c1 [IV-162, (3-(2-(6-(Difluoromethyl)imidazo[1,2-a]pyrazin-3-yl)pyrimidin-4-yl)phenyl)methanol] |  |  | 0.1 to 1 | > 5
FC(F)c1ccc2ncc(-c3ccnc(N4CCOC(c5cn[nH]c5)C4)c3)n2n1 (centres unmarked) [II-108, 4-(4-(6-(Difluoromethyl)imidazo[1,2-b]pyridazin-3-yl)pyridin-2-yl)-2-(1H-pyrazol-4-yl)morpholine] | 0.01 to 1 | 0.5 to 5 |  | 
